The source of these data is patent US20100016163A1, “Adjuvant and dispersant formulations for pesticidal applications” (priority 2007, published 2010).

Like-named read-outs stand apart in the source and are kept apart here.

Data set [1] concerns all 8 species. The data set is described as follows: Field trial of phytotoxicity enhancement, isopropyl ammonium glyphosate formulations (Example 7), sum over species. It is filed as in vivo. The note with it: foliar, isopropyl ammonium glyphosate 360 g a.e./l, 15% surfactant. The method, then:
(§1) The C14 DMAPA MeCl Esterquat formulation was prepared as follows: About 32.3 grams of a solution of the isopropyl ammonium salt of glyphosate, which was about 46.5% by weight acid equivalent (a.e.) of glyphosate and about 6.2 grams of deionized water, were added in a 4-ounce jar. Then, about 7.5 grams of the C14 DMAPA MeCl Esterquat and about 4 grams of propylene glycol were slowly added to the jar with stirring.
(§2) Samples of the formulations as made above were applied to subject plants at two application rates, 90% and 45% of the label rate of RoundUp® Ultra, available from Monsanto Company, St. Louis, Mo. RoundUp® Ultra contains about 360 g a.e./l of isopropyl ammonium glyphosate salt and about 15% by weight of a blend of surfactants. The precise identity of the surfactants has not been disclosed.
Eight plant species were selected for the study. They include (1) Bamyardgrass, (2) Redroot pigweed, (3) Morning glory ivyleaf, (4) Sicklepod, (5) Panicum, (6) Crabgrass, (7) Velvetleaf, and (8) Sunflower. The tests were performed in a randomized complete block design with 5 replicates of each species of plant. Plants were grown in square plastic pots, 3.75 inches×3.75 inches and 3.125 inches deep. Prior to treatment, 5 replicate pots were indiscriminately selected for each treatment and plant species. […]

Data set [2] relates to Barnyardgrass. The data set is described as follows: Field trial Example 7, % kill. It is filed as in vivo. The following applies: isopropyl ammonium glyphosate 360 g a.e./l. The method, then:
as §1, §2
(§3) Eight plant species were selected for the study. They include (1) Bamyardgrass, (2) Redroot pigweed, (3) Morning glory ivyleaf, (4) Sicklepod, (5) Panicum, (6) Crabgrass, (7) Velvetleaf, and (8) Sunflower. The tests were performed in a randomized complete block design with 5 replicates of each species of plant. Plants were grown in square plastic pots, 3.75 inches×3.75 inches and 3.125 inches deep. Prior to treatment, 5 replicate pots were indiscriminately selected for each treatment and plant species. Treatments were applied as foliar applications with a hand pump sprayer equipped with 1 nozzle calibrated to deliver 15 gallons per acre. All spraying tests included a set of 5 untreated control plants from each species.

Data set [3] relates to Crabgrass. Kind of data set: Field trial Example 7, % kill. It is filed as in vivo. The note with it: isopropyl ammonium glyphosate 360 g a.e./l. As for the experimental part: as §1, §2, §3
Data set [4] deals with Morning glory, ivyleaf. Kind of data set: Field trial Example 7, % kill. It is filed as in vivo. The note with it: isopropyl ammonium glyphosate 360 g a.e./l. The method, then: as §1, §2, §3
The subject of data set [5] is Panicum, fall. Kind of data set: Field trial Example 7, % kill. It is filed as in vivo. The following applies: isopropyl ammonium glyphosate 360 g a.e./l. The method, then: as §1, §2, §3
The subject of data set [6] is Redroot pigweed. The data set is described as follows: Field trial Example 7, % kill. The note with it: isopropyl ammonium glyphosate 360 g a.e./l. It is filed as in vivo. As for the experimental part:
as §1, §2, §3

The subject of data set [7] is Sicklepod. Kind of data set: Field trial Example 7, % kill. It is filed as in vivo. The following applies: isopropyl ammonium glyphosate 360 g a.e./l. As for the experimental part:
as §1, §2, §3

The test system of data set [8] is Sunflower. Kind of data set: Field trial Example 7, % kill. It is filed as in vivo. The following applies: isopropyl ammonium glyphosate 360 g a.e./l. The method, then: as §1, §2, §3
For data set [9], the system named is Velvetleaf. The data set is described as follows: Field trial Example 7, % kill. It is filed as in vivo. The note with it: isopropyl ammonium glyphosate 360 g a.e./l. As for the experimental part: as §1, §2, §3
Data set [10] in a line: Surface tension, Gibbs isotherm (Kibron μTrough S). It is filed as physicochemical. The note with it: FIG. 3. An excerpt:
The surface tension of a solution can give important information about its behavior as a surfactant. Measuring the surface tension of a series of aqueous solutions of a molecule and plotting the measured surface tension results versus the logarithm of the concentrations of the series of aqueous solutions yields a plot known as a Gibbs isotherm. From the Gibbs isotherm, one can obtain the critical micelle concentration (CMC) of a surfactant as well as the surface tension at the CMC, two parameters that can indicate the behavior of a surfactant.
For each molecule studied, 14 solutions were prepared so that each solution was half the concentration of the previous solution. Another solution that consisted of only deionized water was used as a reference. Therefore, a total of 15 solutions were studied for each molecule.

The conditions of data set [11]: acid form, 25° C., cited from earlier work.

As to `CCCCCCCCCCCCCC(=O)NCCC[N+](C)(C)C.[Cl-]` [C14 DMAPA MeCl Esterquat], the “Sum of % kill of all 8 species at low (45%) application rate” value in [1] (45% of RoundUp Ultra label rate) was determined as 660%. The “Sum of % kill of all 8 species at high (90%) application rate” value in [1] (90% of RoundUp Ultra label rate) is 708%. Besides, the “% kill” value in data set [2] (high (90%) application rate) came out at 100%; in data set [2] (low (45%) application rate), 99%; in [3] (high (90%) application rate) it was 100%; in data set [3] (low (45%) application rate), 100%; in data set [4] (high (90%) application rate), 84%; in data set [4] (low (45%) application rate), 53%. Moreover, the “% kill” value in data set [5] (high (90%) application rate) turned out to be 95%; in data set [5] (low (45%) application rate) it was 90%; in data set [6] (high (90%) application rate) it was 100%; in [6] (low (45%) application rate) it was 100%; in data set [7] (high (90%) application rate), 33%; in data set [7] (low (45%) application rate), 22%. Besides, the “% kill” value is recorded as 100% in data set [8] (high (90%) application rate), 100% in data set [8] (low (45%) application rate), 96% in data set [9] (high (90%) application rate) and 96% in [9] (low (45%) application rate). The “surface activity, compared with C14 DMAPA MeCl Esterquat” value in data set [10] is “higher surface activity”.
Consider `O=C(O)CNCP(=O)(O)O` [Glyphosate, N-(phosphonomethyl)glycine], for which the solubility in water in data set [11] is on record as 1.16 % by weight; in data set [11] (listed as glyphosate), “about 1.16 % by weight”.
